# US20130064878A1, “WOUND HEALING COMPOSITIONS AND METHODS” (UNIVERSITY OF NOTRE DAME DU LAC, priority 2011, published 2013)
# Assays:
# [1] = test system: wounds of female diabetic db/db mice; assay: Excisional diabetic wound model, single 8-mm wound, topical treatment; type: in vivo, mouse
# Excerpt: (§1) Single excisional wounds 8-mm in diameter were made with a biopsy punch (Miltex, York, Pa., USA) using aseptic technique in the shaved dorsal regions of female diabetic db/db mice and female wild-type mice under isoflurane anesthesia. […] Wounds were photographed and immediately covered with a sterile dressing (3M Tegaderm™ Transparent Dressing, Butler Schein Animal Health, Inc., Dublin, Ohio). Cellulose acetate collars were made in-house from expired films and mounted on the wild-type mice to prevent them from disturbing the wounds on their back. […] On days 1, 3, 7, 10, and 14, digital photographs of wounds were taken while animals were under isoflurane anesthesia. […] The wounds with minimal surrounding healthy tissue were excised and either flash-frozen in liquid nitrogen for protein expression profiling or embedded in optimal cutting temperature (OCT) compound (Tissue-Tek, Torrance, Calif., USA) followed by cryosectioning for histological assessment.
# (§2) Digital images were analyzed for wound areas using the NIH ImageJ version 1.45 software. Photographs of each wound were taken using a digital camera (Olympus SP-800UZ, Center Valley, Pa., USA), which was statically mounted on a tripod at a fixed distance above the mouse wound. A ruler was included in the photographic frame to allow ImageJ calibration. The wound outline was defined from the photographic image and the ImageJ software calculated the wound area. Wound closure was expressed as the change in wound area relative to that from day 0.
# (§3) Wound closures are expressed as mean±SD (n=35 on day 1; n=28 on day 3; n=21 on day 7; n=14 on day 10; n=7 on day 14). Wound closures and levels of MMP-8 and MMP-9 were analyzed using a paired Student t-test; p<0.05 was considered statistically significant.
# (§4) Fresh wound tissue was cut, embedded in OCT compound, and cryosectioned at a thickness of 12-μm in preparation for hematoxylin-eosin (H&E) staining. Morphological assessment of re-epithelialization was performed on a Nikon Eclipse 90i Fluorescent Microscope (Nikon Instruments Inc., Melville, N.Y., USA) (Tkalcevic et al., Toxicol. Pathol. 37 (2), 183-192 (2009)). In situ gelatin zymography was performed as described (Oh et al., J. Neurosci. 19 (19), 8464-8475 (1999)). Briefly, unfixed cryostat sections (12-μm-thick) of wound tissues were incubated in a reaction buffer (50 mM TBS pH 7.6) containing DQ-gelatin conjugate (Molecular Probes, Eugene, Oreg., USA) at 37° C. for 6 h. After fixation in 4% paraformaldehyde in PBS, cells were counterstained with DAPI (Molecular Probes, Eugene, Oreg., USA) and the images were visualized by fluorescence microscopy.
# [2] = test system: wounds of female wild-type mice; assay: Excisional wound model, single 8-mm wound, topical treatment, wild-type mice; type: in vivo, mouse
# Excerpt: as §1, §2, §3, §4
# [3] = test system: gelatinase activity in wound tissues of diabetic mice; assay: In-situ gelatin zymography with DQ-gelatin (Example 5); type: in vivo, mouse; conditions: db/db mice; compared to vehicle
# Experimental: as §4
# [4] = test system: wound gelatinolytic activity; assay: In situ gelatin zymography of wound tissue (Example 3); type: in vivo, mouse; conditions: day 13; 0.25 mg/wound; compared to vehicle
# Experimental: On day 7, half of the mice (n=10) were sacrificed and the wounds of each animal excised. […] On the day of sacrifice, the wounds of each mouse were excised, and analyzed by histology, gelatin zymography and Western blot, and in situ gelatin zymography. Specifically, one wound from each sacrificed animal was analyzed by in situ gelatin zymography, and one wound from each sacrificed animal was analyzed by gelatin zymography, followed by Western blot.
# FIG. 2(A) is a graph of the wound closure measurements, determined every day of the study as [(initial−final)/initial]×100. […] FIG. 2(C) is a photograph of a representative skin lesion of a mouse treated with saline on day 13. […] Wound gelatinolytic activity is visualized using fluorescein isothiocyanate (FITC)-labeled substrate (right images), and 4′,6-diamidino-2-phenylindole (DAPI)-labeled […] (left images). […] Thus, gelatinolytic activity was suppressed in the gelatinase inhibitor-treated group (FIG. 2 (D)).
# [5] = test system: skin punch biopsy lesions of female diabetic mice (db/db mice); assay: Chronic wound model, two 6-mm skin punch biopsy lesions, topical treatment; type: in vivo, mouse
# Experimental: Female diabetic mice (db/db mice, 9-10 weeks old, Jackson Laboratory, Bar Harbour, Me.) (n=10 per group) were prepared for aseptic surgery by clipping the hair on the dorsal thorax and scrubbing the skin with betadine followed by alcohol. […] Each wound was covered with an occlusive dressing following biopsy. The mice recovered on a cage with clean bedding on a heating pad. Mice received buprenorphine subcutaneously (1.5-2.5 mg/kg) at the conclusion of surgery and again 3-5 hours later. Mice were administered 0.5 mL of warm sterile saline intraperitoneally at the conclusion of surgery. […] Wound closure was determined every day for each animal using the initial and final wound diameters, with the percentage wound closure calculated as [(initial−final)/initial]×100.
# On day 12, half of the mice (n=10) were sacrificed and the wounds of each animal excised. The remaining mice continued treatment at the dosages provided above once a day until day 23, when they were sacrificed On the day of sacrifice, the wounds of each mouse were excised, and analyzed by histology, gelatin zymography and Western blot, and in situ gelatin zymography.
# Female diabetic mice (db/db mice; 9-10 weeks old, Jackson Laboratory, Bar Harbour, Me.) (n=10 per group) were prepared for aseptic surgery by clipping the hair on the dorsal thorax and scrubbing the skin with betadine followed by alcohol. […] Each wound was covered with an occlusive dressing following biopsy. The mice recovered on a cage with clean bedding on a heating pad. Mice received buprenorphine subcutaneously (1.5-2.5 mg/kg) at the conclusion of surgery and again 3-5 hours later. Mice were administered 0.5 mL of warm sterile saline intraperitoneally at the conclusion of surgery. […] Wound closure was determined every day for each animal using the initial and final wound diameters, with the percentage wound closure calculated as [(initial−final)/initial]×100.
# Female diabetic mice (db/db mice) (n=10 mice per group, n=2 wounds per mouse, 9-10 weeks old, Jackson Laboratory, Bar Harbour, Me.) were prepared for aseptic surgery by clipping the hair on the dorsal thorax and scrubbing the skin with betadine followed by alcohol. […] Each wound was covered with an occlusive dressing following biopsy. The mice recovered on a cage with clean bedding on a heating pad. Mice received buprenorphine subcutaneously (1.5-2.5 mg/kg) at the conclusion of surgery and again 3-5 hours later. Mice were administered 0.5 mL of warm sterile saline intraperitoneally at the conclusion of surgery. […] Wound closure was determined every day for each animal using the initial and final wound diameters, with the percentage wound closure calculated as [(initial−final)/initial]×100.
# [6] = test system: animal models of cancer metastasis, stroke, hemorrhage, spinal cord and brain injury; conditions: prostate, breast cancer and T-cell lymphoma metastasis, ischemic stroke, subarachnoid hemorrhage, traumatic brain injury, testosterone-induced neurogenesis; cited from earlier work
smiles,measurement,setting,value
Nc1ccc(Oc2ccc(S(=O)(=O)CC3CS3)cc2)cc1 (stereo not shown) [ND-322],effect on wound healing compared to vehicle,[1]; 0.25 mg/wound/day topical,accelerated wound healing
same,wound closure,"[1]; day 10, 0.25 mg/wound/day topical, n=14, p<0.05 vs vehicle",70±16%
same,re-epithelialization (H&E staining),[1]; day 14,complete re-epithelialization
same,wound closure,"[1]; day 14, 0.25 mg/wound/day topical, n=7, p<0.01 vs vehicle",92±4%
same,difference in wound closure vs vehicle,"[1]; days 1, 3, and 7, p>0.2",not statistically significant
same,effect on wound healing compared to vehicle,"[2]; 0.25 mg/wound/day topical, p>0.25",did not accelerate healing
same,wound closure,"[2]; day 7, 0.25 mg/wound/day topical, n=21",62±19%
same,wound closure,"[2]; day 10, 0.25 mg/wound/day topical, n=14",82±11%
same,re-epithelialization (H&E staining),[2]; day 14,completely re-epithelialized
same,wound closure,"[2]; day 14, 0.25 mg/wound/day topical, n=7",96±4%
same,gelatinase activity in wound tissues (in-situ zymography),[3],significantly decreased
Nc1ccc(Oc2ccc(S(=O)(=O)CC3CS3)cc2)cc1 (stereo not shown) [p-amino SB-3CT],wound gelatinolytic activity (in situ gelatin zymography),[4],suppression of gelatinolytic activity
same,difference in wound healing between treated and vehicle groups,"[5]; Example 3, 0.25 mg/wound once per day, 13 days, vehicle saline",Significant differences in wound healing
same,wound closure,"[5]; day 6, 0.25 mg/wound topical once per day, vehicle saline, db/db mice",37.0±9.5%
"O=S(=O)(CC1CS1)c1ccc(Oc2ccccc2)cc1 (stereo not shown) [SB-3CT, 2-(((4-phenoxyphenyl)sulfonyl)methyl)thiirane]",efficacy in animal models,[6],effective
same,wound closure,"[5]; at 13-14 days, SB-3CT-treated db/db mice (0.25 or 1.25 mg/wound per day)",> 90%
same,wound closure,"[5]; day 6, 0.25 mg/wound per day topical, vehicle DMSO, db/db mice",49.6±14.0%
same,wound closure,"[5]; day 6, 1.25 mg/wound per day topical, vehicle DMSO, db/db mice",50.0±7.4%
same,difference in wound closure between vehicle and treated mice,"[5]; starting on day 2, db/db mice, Example 1",Significant differences (p<0.05)
